Assay results taken from patent US20250346600A1, “TRICYCLIC DERIVATIVES AND RELATED USES” (MOMA Therapeutics, Inc., priority 2023, published 2025).
Like-named read-outs stand apart in the source and are kept apart here.

How the values were obtained:
HCT116 cells = assay: HCT116 (MSI) 7 day viability, CellTiter Glo; format: cell-based; settings: 7 days, read-out: HCT116 (MSI) Viability 7 Day Abs AC50
Summary of the method: (§1)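 Luminescence read-out (CellTiter Glo) after 7-day compound exposure at 37 °C. Seeding density 50 cells/well for HCT116, 500 cells/well for HT29. Background from cell-free medium wells; IC50 by four-parameter logistic fit, geometric mean of at least 2 replicates.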

HT29 cells = assay: HT29 (MSS) 7 day viability, CellTiter Glo; format: cell-based; settings: 7 days, read-out: HT29 (MSS) Viability 7 Day CTGAbs AC50
Summary of the method: as §1

[1] = target: Full length WRN protein (aa 2-1432) (Homo sapiens (Human), UniProt Q14191); assay: WRN ATPase ADP-Glo biochemical assay, Assay Format B (100 μM ATP); settings: 0.25 nM WRN, 100 nM C6.18 ssDNA, 60 min preincubation, read-out: ATPase ADPGlo AC50 (uM)- Assay Format B
Full length WRN protein (aa 2-1432), sequence (Q14191 2-1432): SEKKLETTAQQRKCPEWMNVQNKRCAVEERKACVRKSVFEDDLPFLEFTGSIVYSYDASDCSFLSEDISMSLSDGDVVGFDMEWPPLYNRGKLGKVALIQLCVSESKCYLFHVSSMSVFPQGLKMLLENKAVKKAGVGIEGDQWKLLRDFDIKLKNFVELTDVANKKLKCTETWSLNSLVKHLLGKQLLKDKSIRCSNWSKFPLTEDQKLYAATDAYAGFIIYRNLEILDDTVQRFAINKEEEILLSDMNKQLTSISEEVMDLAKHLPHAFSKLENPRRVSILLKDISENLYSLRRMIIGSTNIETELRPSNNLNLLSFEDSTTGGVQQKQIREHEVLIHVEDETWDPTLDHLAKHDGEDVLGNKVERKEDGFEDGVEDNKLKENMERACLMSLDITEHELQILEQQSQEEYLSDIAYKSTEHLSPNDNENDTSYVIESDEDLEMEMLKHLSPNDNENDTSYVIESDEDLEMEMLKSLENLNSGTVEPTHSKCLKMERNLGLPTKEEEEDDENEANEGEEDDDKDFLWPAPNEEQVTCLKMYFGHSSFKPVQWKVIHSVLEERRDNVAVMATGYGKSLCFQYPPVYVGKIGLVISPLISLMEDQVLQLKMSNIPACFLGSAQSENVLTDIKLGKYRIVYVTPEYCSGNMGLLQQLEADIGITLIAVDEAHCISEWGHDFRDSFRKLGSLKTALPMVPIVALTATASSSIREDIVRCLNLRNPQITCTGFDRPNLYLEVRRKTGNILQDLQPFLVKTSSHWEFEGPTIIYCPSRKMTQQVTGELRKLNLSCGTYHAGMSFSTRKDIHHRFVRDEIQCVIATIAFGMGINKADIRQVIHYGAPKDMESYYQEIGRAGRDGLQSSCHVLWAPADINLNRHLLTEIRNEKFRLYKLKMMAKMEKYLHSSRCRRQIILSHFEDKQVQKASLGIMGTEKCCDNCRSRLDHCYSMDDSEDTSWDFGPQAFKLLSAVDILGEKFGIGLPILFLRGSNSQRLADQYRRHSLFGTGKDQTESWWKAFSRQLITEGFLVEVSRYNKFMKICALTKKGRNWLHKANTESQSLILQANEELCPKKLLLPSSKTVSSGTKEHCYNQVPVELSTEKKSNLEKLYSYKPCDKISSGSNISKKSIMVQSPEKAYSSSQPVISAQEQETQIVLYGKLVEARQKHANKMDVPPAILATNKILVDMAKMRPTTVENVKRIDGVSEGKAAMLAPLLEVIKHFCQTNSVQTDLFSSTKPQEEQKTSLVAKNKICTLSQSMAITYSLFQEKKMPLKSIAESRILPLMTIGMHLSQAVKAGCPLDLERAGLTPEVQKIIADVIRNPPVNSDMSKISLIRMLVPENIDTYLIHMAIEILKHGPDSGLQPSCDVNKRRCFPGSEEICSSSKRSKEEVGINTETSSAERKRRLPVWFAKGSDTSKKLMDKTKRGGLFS

SMILES | AC50 (HCT116 cells; Homo sapiens, HCT-116, 168 h) [µM] | AC50 (HT29 cells; Homo sapiens, HT-29, 168 h) [µM] | AC50 [1] [µM] | AC50 (HCT116 cells) [µM] | AC50 (HT29 cells) [µM]
C=CC(=O)N1CCc2nc(-c3ccc(C4CCC4)cc3)n3c2C(C1)N(C(=O)c1ccc(Br)c2[nH]c(C(F)F)nc12)CC3 (stereo not drawn) [Compound 237, 1-(5-(7-bromo-2-(difluoromethyl)-1H-benzo[d]imidazole-4-carbonyl)-2-(4-cyclobutylphenyl)-4,5,5a,6,8,9-hexahydro-1,2a,5,7-tetraazabenzo[cd]azulen-7(3H)-yl)prop-2-en-1-one] | 0.001 to 0.1 | > 3 | 0.0015 to 0.005 |  | 
C=CC(=O)N1CC(OC2CC(C#N)C2)c2nn(-c3ccc(C4CC4)cc3O)c3c2C(C1)N(C(=O)c1cnc(C(F)(F)F)cc1N)CC3 (stereo not drawn) [Compound 222, 3-((7-acryloyl-5-(4-amino-6-(trifluoromethyl)nicotinoyl)-2-(4-cyclopropyl-2-hydroxyphenyl)-3,4,5,5a,6,7,8,9-octahydro-2H-1,2,5,7-tetraazabenzo[cd]azulen-9-yl)oxy)cyclobutane-1-carbonitrile] | 0.001 to 0.1 | > 3 | 0.0015 to 0.005 |  | 
C=CC(=O)N1CCc2nn(-c3ccc(C4CC4)cc3O)c3c2C(C1)N(C(=O)c1cnc(Br)cc1N)CC3 (stereo not drawn) [Compound 191, 1-(5-(4-amino-6-bromonicotinoyl)-2-(4-cyclopropyl-2-hydroxyphenyl)-2,3,4,5,5a,6,8,9-octahydro-7H-1,2,5,7-tetraazabenzo[cd]azulen-7-yl)prop-2-en-1-one] | 0.001 to 0.1 | > 3 | 0.005 to 0.015 |  | 
C=CC(=O)N1CCc2nn(-c3ccc(C4CC4)cc3)c3c2C(C1)N(C(=O)c1cnc(OC(F)F)cc1N)CC3 (stereo not drawn) [Compound 177, 1-(5-(4-amino-6-(difluoromethoxy)nicotinoyl)-2-(4-cyclopropylphenyl)-2,3,4,5,5a,6,8,9-octahydro-7H-1,2,5,7-tetraazabenzo[cd]azulen-7-yl)prop-2-en-1-one] | 0.001 to 0.1 | > 3 | 0.005 to 0.015 |  | 
C=CC(=O)N1CCc2nn(-c3ccc(C4CC4)c(F)c3O)c3c2C(C1)N(C(=O)c1cnc(Br)cc1N)CC3 (stereo not drawn) [Compound 215, 1-(5-(4-amino-6-bromonicotinoyl)-2-(4-cyclopropyl-3-fluoro-2-hydroxyphenyl)-2,3,4,5,5a,6,8,9-octahydro-7H-1,2,5,7-tetraazabenzo[cd]azulen-7-yl)prop-2-en-1-one] | 0.001 to 0.1 | > 3 | 0.0015 to 0.005 |  | 
C=CC(=O)N1CCc2nn(-c3ccc(C4CC4)cc3O)c3c2C(C1)N(C(=O)c1cnc(C(F)(F)F)nc1N)CC3 (stereo not drawn) [Compound 197, 1-(5-(4-amino-2-(trifluoromethyl)pyrimidine-5-carbonyl)-2-(4-cyclopropyl-2-hydroxyphenyl)-2,3,4,5,5a,6,8,9-octahydro-7H-1,2,5,7-tetraazabenzo[cd]azulen-7-yl)prop-2-en-1-one] | 0.001 to 0.1 | > 3 | 0.005 to 0.015 |  | 
C=CC(=O)N1CCc2nn(-c3ccc(C4CCC4)cc3O)c3c2C(C1)N(C(=O)c1ccc(Br)c2[nH]c(OC(F)F)nc12)CC3 (stereo not drawn) [Compound 88, 1-(5-(7-bromo-2-(difluoromethoxy)-1H-benzo[d]imidazole-4-carbonyl)-2-(4-cyclobutyl-2-hydroxyphenyl)-2,3,4,5,5a,6,8,9-octahydro-7H-1,2,5,7-tetraazabenzo[cd]azulen-7-yl)prop-2-en-1-one] | 0.001 to 0.1 | > 3 | 0.005 to 0.015 |  | 
C=CC(=O)N1CCc2nn(-c3ccc(C4CC4)c(F)c3O)c3c2C(C1)N(C(=O)c1cnc(C(F)(F)F)cc1N)CC3 (stereo not drawn) [Compound 203, 1-(5-(4-amino-6-(trifluoromethyl)nicotinoyl)-2-(4-cyclopropyl-3-fluoro-2-hydroxyphenyl)-2,3,4,5,5a,6,8,9-octahydro-7H-1,2,5,7-tetraazabenzo[cd]azulen-7-yl)prop-2-en-1-one] | 0.001 to 0.1 | > 3 | 0.005 to 0.015 |  | 
C=CC(=O)N1CCc2nn(-c3ccc(C4CCC4)cc3O)c3c2C(C1)N(C(=O)c1ccc(C(F)(F)F)nc1N)CC3 (stereo not drawn) [Compound 76, 1-(5-(2-amino-6-(trifluoromethyl)nicotinoyl)-2-(4-cyclobutyl-2-hydroxyphenyl)-2,3,4,5,5a,6,8,9-octahydro-7H-1,2,5,7-tetraazabenzo[cd]azulen-7-yl)prop-2-en-1-one] | 0.001 to 0.1 | > 3 | 0.005 to 0.015 |  | 
C=CC(=O)N1CCc2nn(-c3ccc(C4CCC4)cc3O)c3c2C(C1)N(C(=O)c1cnc(Br)cc1N)CC3 (stereo not drawn) [Compound 132, 1-(5-(4-amino-6-bromonicotinoyl)-2-(4-cyclobutyl-2-hydroxyphenyl)-2,3,4,5,5a,6,8,9-octahydro-7H-1,2,5,7-tetraazabenzo[cd]azulen-7-yl)prop-2-en-1-one] | 0.001 to 0.1 | > 3 | 0.0015 to 0.005 |  | 
C=CC(=O)N1CCc2nn(-c3ccc(C4CC4)cc3O)c3c2C(C1)N(C(=O)c1c(N)cc(Br)c2nc[nH]c12)CC3 (stereo not drawn) [Compound 212, 1-(5-(6-amino-4-bromo-1H-benzo[d]imidazole-7-carbonyl)-2-(4-cyclopropyl-2-hydroxyphenyl)-2,3,4,5,5a,6,8,9-octahydro-7H-1,2,5,7-tetraazabenzo[cd]azulen-7-yl)prop-2-en-1-one] | 0.001 to 0.1 | > 3 | 0.0015 to 0.005 |  | 
C=CC(=O)N1CCc2nn(-c3ccc(C4CCC4)cc3)c3c2C(C1)N(C(=O)c1ccc(C(F)(F)F)c2[nH]nc(N)c12)CC3 (stereo not drawn) [Compound 147, 1-(5-(3-amino-7-(trifluoromethyl)-1H-indazole-4-carbonyl)-2-(4-cyclobutylphenyl)-2,3,4,5,5a,6,8,9-octahydro-7H-1,2,5,7-tetraazabenzo[cd]azulen-7-yl)prop-2-en-1-one] | 0.001 to 0.1 | > 3 | 0.005 to 0.015 |  | 
C=CC(=O)N1CCc2nn(-c3ccc(C4CC4)cc3O)c3c2C(C1)N(C(=O)c1ccc(C(F)(F)F)c(F)c1N)CC3 (stereo not drawn) [Compound 259, 1-(5-(2-amino-3-fluoro-4-(trifluoromethyl)benzoyl)-2-(4-cyclopropyl-2-hydroxyphenyl)-2,3,4,5,5a,6,8,9-octahydro-7H-1,2,5,7-tetraazabenzo[cd]azulen-7-yl)prop-2-en-1-one] | 0.001 to 0.1 | > 3 | 0.015 to 0.055 |  | 
C=CC(=O)N1CCc2nn(-c3ccc(C4CC4)cc3O)c3c2C(C1)N(C(=O)c1cnc(C(F)(F)F)c(OC)c1N)CC3 (stereo not drawn) [Compound 216, 1-(5-(4-amino-5-methoxy-6-(trifluoromethyl)nicotinoyl)-2-(4-cyclopropyl-2-hydroxyphenyl)-2,3,4,5,5a,6,8,9-octahydro-7H-1,2,5,7-tetraazabenzo[cd]azulen-7-yl)prop-2-en-1-one] |  |  | 0.0015 to 0.005 | 0.001 to 0.1 | > 3
C=CC(=O)N1CCc2nn(-c3ccc(C4CCC4)cc3O)c3c2C(C1)N(C(=O)c1cnc(OC(F)F)cc1N)CC3 (stereo not drawn) [Compound 164, 1-(5-(4-amino-6-(difluoromethoxy)nicotinoyl)-2-(4-cyclobutyl-2-hydroxyphenyl)-2,3,4,5,5a,6,8,9-octahydro-7H-1,2,5,7-tetraazabenzo[cd]azulen-7-yl)prop-2-en-1-one] | 0.001 to 0.1 | > 3 | 0.0015 to 0.005 |  | 
C=CC(=O)N1CCc2nn(-c3ccc(C(C)C)cc3O)c3c2C(C1)N(C(=O)c1cnc(C(F)(F)F)c2[nH]ncc12)CC3 (stereo not drawn) [Compound 176, 1-(2-(2-hydroxy-4-isopropylphenyl)-5-(7-(trifluoromethyl)-1H-pyrazolo[3,4-c]pyridine-4-carbonyl)-2,3,4,5,5a,6,8,9-octahydro-7H-1,2,5,7-tetraazabenzo[cd]azulen-7-yl)prop-2-en-1-one] | 0.001 to 0.1 | > 3 | 0.0015 to 0.005 |  | 
